Values quoted from earlier work, collected in US20170101624A1, “METHODS OF ENHANCING T-CELL LONGEVITY AND USES THEREOF” (Washington University, priority 2015, published 2017).

System: Drp1 (Dnm1)
Settings: as disclosed in Cassidy-Stone et al. Developmental Cell 2008

COc1cc(-n2c(=S)[nH]c3ccccc3c2=O)c(Cl)cc1Cl [compound A]
efficacy relative to Mdivi-1 (inhibition of mitochondrial fission): full efficacy
